Experimental data taken from paper PMC10593608, “The catalytic role of glutathione transferases in heterologous anthocyanin biosynthesis” (Nature Catalysis, 2023).

Experiments:
[1] = target: T1, AtTT19 (Arabidopsis thaliana, UniProt Q9FE46); assay: cyanidin formation by clarified E. coli lysate expressing the GST; type: biochemical; details: 20 μM GSH, 100 mM MOPSO pH 6.2, 30 °C
T1 construct: gene GSTF12; expressed in E. coli from pET-28b-based plasmid, clarified lysate
T1 sequence (Q9FE46 1-214): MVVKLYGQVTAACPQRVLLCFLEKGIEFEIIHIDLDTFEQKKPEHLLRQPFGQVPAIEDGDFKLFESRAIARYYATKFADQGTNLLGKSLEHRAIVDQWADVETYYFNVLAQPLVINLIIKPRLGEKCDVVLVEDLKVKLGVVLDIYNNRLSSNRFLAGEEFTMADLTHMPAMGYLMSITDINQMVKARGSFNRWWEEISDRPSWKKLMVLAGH

[2] = target: T1, AtTT19; assay: GSH-transferase assay, A340nm, clarified E. coli lysate; type: biochemical; details: 1 mM CDNB, 1 mM GSH, 50 mM Tris pH 7.5, 30 °C
[3] = target: T2, ZmBZ2 (Zea mays, UniProt P50472); assay: as above; type: biochemical; details: 1 mM CDNB, 1 mM GSH, 50 mM Tris pH 7.5, 30 °C
T2 construct: gene BZ2; expressed in E. coli from pET-28b-based plasmid, clarified lysate
T2 sequence (P50472 1-236): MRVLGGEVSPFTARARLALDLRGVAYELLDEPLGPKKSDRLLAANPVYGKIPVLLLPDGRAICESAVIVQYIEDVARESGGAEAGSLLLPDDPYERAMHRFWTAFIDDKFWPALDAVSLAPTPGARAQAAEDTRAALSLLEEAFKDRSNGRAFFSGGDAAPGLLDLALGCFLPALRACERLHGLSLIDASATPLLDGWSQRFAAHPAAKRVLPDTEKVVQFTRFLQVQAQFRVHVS

[4] = target: T3, AtGSTF2 (Arabidopsis thaliana, UniProt P46422); assay: as above; type: biochemical; details: 1 mM CDNB, 1 mM GSH, 50 mM Tris pH 7.5, 30 °C
T3 construct: gene GSTF2; expressed in E. coli from pET-28b-based plasmid, clarified lysate
T3 sequence (P46422 1-212): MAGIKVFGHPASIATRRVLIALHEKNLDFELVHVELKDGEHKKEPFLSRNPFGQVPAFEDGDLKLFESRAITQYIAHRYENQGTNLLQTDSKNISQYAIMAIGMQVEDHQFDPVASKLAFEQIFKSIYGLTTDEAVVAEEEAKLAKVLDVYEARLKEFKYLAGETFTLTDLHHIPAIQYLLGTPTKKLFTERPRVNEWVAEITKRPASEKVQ

[5] = target: T4, VvGST2 (Vitis vinifera, UniProt A0T2X7); assay: as above; type: biochemical; details: 1 mM CDNB, 1 mM GSH, 50 mM Tris pH 7.5, 30 °C
T4 construct: gene GST2; expressed in E. coli from pET-28b-based plasmid, clarified lysate
T4 sequence (A0T2X7 1-214): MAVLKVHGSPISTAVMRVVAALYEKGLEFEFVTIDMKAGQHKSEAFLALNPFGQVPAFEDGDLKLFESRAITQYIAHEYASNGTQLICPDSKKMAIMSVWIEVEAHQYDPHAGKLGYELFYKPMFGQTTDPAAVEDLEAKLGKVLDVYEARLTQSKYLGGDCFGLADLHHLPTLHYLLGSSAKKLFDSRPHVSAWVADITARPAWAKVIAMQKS

[6] = target: T5, PhAN9 (Petunia x hybrida, UniProt O24261); assay: as above; type: biochemical; details: 1 mM CDNB, 1 mM GSH, 50 mM Tris pH 7.5, 30 °C
T5 construct: expressed in E. coli from pET-28b-based plasmid, clarified lysate
T5 sequence (O24261 1-232): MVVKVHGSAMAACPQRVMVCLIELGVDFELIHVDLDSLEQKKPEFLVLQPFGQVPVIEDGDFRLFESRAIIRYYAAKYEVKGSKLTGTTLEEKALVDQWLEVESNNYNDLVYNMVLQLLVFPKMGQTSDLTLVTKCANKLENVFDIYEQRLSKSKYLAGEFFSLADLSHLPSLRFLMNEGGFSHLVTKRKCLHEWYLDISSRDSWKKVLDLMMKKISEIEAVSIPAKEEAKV

[7] = target: T6, PtGSTF8 (Populus trichocarpa, UniProt B9MWW0); assay: X-ray crystal structure, […] Å; type: binding; details: ternary complex with GSH; H-site; substrate analogue
T6 construct: gene POPTR_017G138800; full length, expressed in E. coli from pET-28b-based pANT35, GSTrap purified, apo (GSH removed with DTT)
T6 sequence (B9MWW0 1-214): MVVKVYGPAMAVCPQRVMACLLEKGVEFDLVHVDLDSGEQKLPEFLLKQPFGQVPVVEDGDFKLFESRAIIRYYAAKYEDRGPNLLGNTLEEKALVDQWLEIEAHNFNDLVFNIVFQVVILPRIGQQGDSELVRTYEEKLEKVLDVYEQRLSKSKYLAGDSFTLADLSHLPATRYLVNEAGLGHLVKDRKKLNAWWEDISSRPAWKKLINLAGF

[8] = substrate: Oc1cc(O)c2c(c1)O[C@H](c1ccc(O)c(O)c1)C(O)(O)[C@H]2O; assay: cyanidin formation at A580nm, 96-well plate, Michaelis-Menten; type: biochemical, Populus trichocarpa; details: GSH cofactor, 100 mM MOPSO pH 6.2, 30 °C, ascorbate, Fe(II), ultrafiltered substrate, apparent

Oc1cc(O)c2c(c1)O[C@H](c1ccc(O)c(O)c1)C(O)(O)[C@H]2O [compound 4]
cyanidin formation by clarified E. coli lysate expressing the GST [1]: arGSTs from maize (ZmBZ2), arabidopsis (AtTT19) and grapevine (VvGST4)

O=[N+]([O-])c1ccc(Cl)c([N+](=O)[O-])c1 [compound 5, 1-chloro-2,4-dinitrobenzene]
GSH-transferase assay, A340nm, clarified E. coli lysate [2]: all investigated GSTs were confirmed to be solubly and functionally produced | GSH-transferase assay, A340nm, clarified E. coli lysate [3]: all investigated GSTs were confirmed to be solubly and functionally produced | GSH-transferase assay, A340nm, clarified E. coli lysate [4]: all investigated GSTs were confirmed to be solubly and functionally produced | GSH-transferase assay, A340nm, clarified E. coli lysate [5]: all investigated GSTs were confirmed to be solubly and functionally produced | GSH-transferase assay, A340nm, clarified E. coli lysate [6]: all investigated GSTs were confirmed to be solubly and functionally produced

Oc1cc(O)c2c(c1)O[C@@H](c1ccc(O)c(O)c1)[C@H](O)C2 [compound 12, (−)-catechin]
X-ray crystal structure, 1.09 Å [7]: crystal structure of PtGSTF8 as a ternary complex with GSH and the substrate analogue (−)-catechin

B1: PtGSTF8 (Populus trichocarpa) (protein)
chain: T6 sequence (B9MWW0 1-214)
notes: full length, expressed in E. coli from pET-28b-based pANT35, GSTrap purified, apo (GSH removed with DTT)
Km [8]: 147 ± 8 µM | kcat [8]: 0.118 s⁻¹
